Measurements as given in USRE43802E1, “α- and β-amino acid hydroxyethylamino sulfonamides useful as retroviral protease inhibitors” (G.D. Searle LLC, priority 1992, dated 2012).
pIC50: −log10 of the molar value. Read-outs that look alike come from different tables or passages of the source.

Biological target: T1, HIV protease (Human immunodeficiency virus type 1 group M subtype B, UniProt P04585)
T1 construct: HIV protease is diluted in the assay buffer to a final enzyme concentration of 12.3 nanomolar, based on a molecular weight of 10,780
Assay: HIV protease enzyme assay (fluorescence, substrate 2-Ile-Nle-Phe(p-NO2)-Gln-ArgNH2)
Assay type: biochemical
Details: HIV protease enzyme assay; for pIC50: read-out: IC50; for IC50: IC50 (nM)
Procedure: The enzyme method is described below. […] The positive control is MVT-101 (Miller, M. et al, Science, 246, 1149 (1989)] The assay conditions are as follows:
Assay buffer: 20 mM sodium phosphate, pH 6.4 20% glycerol 1 mM EDTA 1 mM DTT 0.1% CHAPS
The above described substrate is dissolved in DMSO, then diluted 10 fold in assay buffer. Final substrate concentration in the assay is 80 μM.
The final concentration of DMSO is 14% and the final concentration of glycerol is 18%. The test compound is dissolved in DMSO and diluted in DMSO to 10× the test concentration; 10 μl of the enzyme preparation is added, the materials mixed and then the mixture is incubated at ambient temperature for 15 minutes. The enzyme reaction is initiated by the addition of 40 μl of substrate. The increase in fluorescence is monitored at 4 time points (0, 8, 16 and 24 minutes) at ambient temperature. Each assay is carried out in duplicate wells.

SMILES: O=C(N[C@@H](Cc1ccccc1)[C@H](O)CN(C1CCCCC1)S(=O)(=O)c1ccccc1)OCc1ccccc1 [Entry 5]
- pIC50 (Table 18A): 7.72
- pIC50 (Table 21): 7.72

SMILES: CC(C)CCN(C[C@@H](O)[C@H](Cc1ccccc1)NC(=O)OCc1ccccc1)S(=O)(=O)c1ccc([N+](=O)[O-])cc1 [Entry 6]
- pIC50 (Table 18A): 8.00

SMILES: CC(C)CCN(C[C@@H](O)[C@H](Cc1ccccc1)NC(=O)[C@@H](NC(=O)CN(C)C)C(C)(C)C)S(C)(=O)=O [Entry 6]
- IC50 (Table 21): > 100 nM

SMILES: CCCN(C[C@@H](O)[C@H](Cc1ccccc1)NC(=O)[C@H](CC(N)=O)NC(=O)OCc1ccccc1)S(=O)(=O)c1ccccc1 [Entry 7]
- pIC50 (Table 18A): 8.44

SMILES: CC(C)CCN(C[C@@H](O)[C@H](Cc1ccccc1)NC(=O)[C@H](Cc1c[nH]cn1)NC(=O)OCc1ccccc1)S(=O)(=O)c1ccccc1 [Entry 8]
- pIC50 (Table 18A): 8.38

SMILES: CC(C)CCN(C[C@@H](O)[C@H](Cc1ccccc1)NC(=O)c1ccccc1)S(=O)(=O)c1ccccc1 [Entry 8]
- IC50 (Table 21): 85 nM

SMILES: CC(C)CCN(C[C@@H](O)[C@H](Cc1ccccc1)NC(=O)[C@@H](NC(=O)CN(C)C)C(C)(C)C)S(=O)(=O)c1ccccc1 [Entry 9]
- pIC50 (Table 18A): 8.46

SMILES: COCCCN(C[C@@H](O)[C@H](Cc1ccccc1)NC(=O)OCc1ccccc1)S(=O)(=O)c1ccccc1 [Entry 9]
- pIC50 (Table 21): 7.28

SMILES: CC(C)CCN(C[C@@H](O)[C@H](Cc1ccccc1)NC(=O)OCc1ccccc1)S(=O)(=O)c1cccs1 [Entry 10]
- pIC50 (Table 18A): 7.00

SMILES: CSCCCN(C[C@@H](O)[C@H](Cc1ccccc1)NC(=O)OCc1ccccc1)S(=O)(=O)c1ccccc1 [Entry 10]
- pIC50 (Table 21): 7.35

SMILES: CC(C)CCN(C[C@@H](O)[C@H](Cc1ccccc1)NC(=O)[C@@H](NC(=O)CN(C)C)C(C)(C)C)S(=O)(=O)c1ccccc1 [Entry 11]
- IC50 (Table 21): 3 nM

SMILES: CC(C)CCN(C[C@@H](O)[C@H](Cc1ccccc1)NC(=O)[C@@H](NC(=O)OCc1ccccc1)C(C)(C)C)S(C)(=O)=O [Entry 11]
- pIC50 (Table 18A): 7.09

SMILES: CC(C)CCN(C[C@@H](O)[C@H](Cc1ccccc1)NC(=O)[C@H](Cc1cnc[nH]1)NC(=O)c1ccc2ccccc2n1)S(=O)(=O)c1ccccc1 [Entry 12]
- IC50 (Table 21): 2 nM

SMILES: CCOc1ccc(S(=O)(=O)N(CC(C)C)C[C@@H](O)[C@H](Cc2ccccc2)NC(=O)OCc2ccccc2)cc1 [Entry 12]
- pIC50 (Table 18A): 7.70

SMILES: CCC(C)[C@H](NC(=O)CN(C)C)C(=O)N[C@@H](Cc1ccccc1)[C@H](O)CN(CCC(C)C)S(=O)(=O)c1ccccc1 (some centres unmarked) [Entry 14]
- IC50 (Table 21): 4 nM

SMILES: CCC(C)[C@H](NC(=O)CN(C)C)C(=O)N[C@@H](Cc1ccccc1)[C@H](O)CN(CC(C)C)S(=O)(=O)c1ccc(OC)cc1 (some centres unmarked) [Example 13]
- pIC50 (Table 21): 8.52

SMILES: CC(C)CN(C[C@@H](O)[C@H](Cc1ccccc1)NC(=O)OCc1cccnc1)S(=O)(=O)c1ccc(Cl)cc1 [Example 18]
- pIC50 (Table 21): 8.40

SMILES: CC(C)CN(C[C@@H](O)[C@H](Cc1ccccc1)NC(=O)OCc1cccnc1)S(=O)(=O)c1ccc([N+](=O)[O-])cc1 [Example 19]
- pIC50 (Table 21): 8.10

SMILES: CC(C)CN(C[C@@H](O)[C@H](Cc1ccccc1)NC(=O)OCc1cccnc1)S(=O)(=O)c1ccc(O)cc1 [Example 20]
- pIC50 (Table 21): 8.40

SMILES: COc1ccc(S(=O)(=O)N(CC(C)C)C[C@@H](O)[C@H](Cc2ccccc2)NC(=O)OCc2ccccn2)cc1 [Example 21]
- pIC50 (Table 21): 7.14

SMILES: COc1ccc(S(=O)(=O)N(CC(C)C)C[C@@H](O)[C@H](Cc2ccccc2)NC(=O)OCc2cncnc2)cc1 [Example 23]
- pIC50 (Table 21): 8.70

SMILES: COc1ccc(S(=O)(=O)N(CC(C)C)C[C@@H](O)[C@H](Cc2ccccc2)NC(=O)OCc2cc[n+]([O-])cc2)cc1 [Example 26]
- pIC50 (Table 21): 7.17

SMILES: COc1ccc(S(=O)(=O)N(CC(C)C)C[C@@H](O)[C@H](Cc2ccccc2)NC(=O)C2CCCCC2)cc1 [Example 35]
- pIC50 (Table 21): 7.74

SMILES: COc1ccc(S(=O)(=O)N(CC(C)C)C[C@@H](O)[C@H](Cc2ccccc2)NC(=O)c2cccc(N(C)C)c2C)cc1 [Example 36]
- pIC50 (Table 21): 6.51

SMILES: Cc1ccccc1C(=O)N[C@@H](Cc1ccccc1)[C@H](O)CN(CC(C)C)S(=O)(=O)c1ccc(O)cc1 [Example 37]
- pIC50 (Table 21): 8.15

SMILES: COc1ccc(S(=O)(=O)N(CC(C)C)C[C@@H](O)[C@H](Cc2ccccc2)NC(=O)OCc2ccc(N)nc2)cc1 [Example 38]
- pIC50 (Table 21): 8.40

SMILES: COc1ccc(S(=O)(=O)N(CC(C)C)C[C@@H](O)[C@H](Cc2ccccc2)NC(=O)OCc2ccc(O)nc2)cc1 [Example 39]
- pIC50 (Table 21): 7.80

SMILES: CC(C)CN(C[C@@H](O)[C@H](Cc1ccccc1)NC(=O)OCc1ccc(N)nc1)S(=O)(=O)c1ccc(O)cc1 [Example 40]
- pIC50 (Table 21): 8.52

SMILES: CC(C)CN(C[C@@H](O)[C@H](Cc1ccccc1)NC(=O)OCc1cncnc1)S(=O)(=O)c1ccc(O)cc1 [Example 41]
- pIC50 (Table 21): 8.52

SMILES: CC(C)CN(C[C@@H](O)[C@H](Cc1ccccc1)NC(=O)O[C@H]1CCSC1)S(=O)(=O)c1ccc(O)cc1 [Example 42]
- pIC50 (Table 21): 8.70

SMILES: CC(C)CN(C[C@@H](O)[C@H](Cc1ccccc1)NC(=O)O[C@H]1CCS(=O)(=O)C1)S(=O)(=O)c1ccc(O)cc1 [Example 43]
- pIC50 (Table 21): 8.40

SMILES: COc1ccc(S(=O)(=O)N(CC(C)C)C[C@@H](O)[C@H](Cc2ccccc2)NC(=O)O[C@H]2CCOC2)cc1 [Example 44]
- pIC50 (Table 21): 8.40

SMILES: CC(C)CN(C[C@@H](O)[C@H](Cc1ccccc1)NC(=O)O[C@H]1CCOC1)S(=O)(=O)c1ccc(O)cc1 [Example 45]
- pIC50 (Table 21): 8.70

SMILES: COc1ccc(S(=O)(=O)N(CC(C)C)C[C@@H](O)[C@H](Cc2ccccc2)NC(=O)O[C@H]2CCSC2)cc1 [Example 46]
- pIC50 (Table 21): 8.70

SMILES: COc1ccc(S(=O)(=O)N(CC(C)C)C[C@@H](O)[C@H](Cc2ccccc2)NC(=O)O[C@H]2CCS(=O)(=O)C2)cc1 [Example 47]
- pIC50 (Table 21): 8.52

SMILES: COc1ccc(S(=O)(=O)N(CC(C)C)C[C@@H](O)[C@H](Cc2ccccc2)NC(=O)c2cccc([N+](=O)[O-])c2C)cc1 [Example 48]
- pIC50 (Table 21): 7.77

SMILES: COc1ccc(S(=O)(=O)N(CC(C)C)C[C@@H](O)[C@H](Cc2ccccc2)NC(=O)c2ccc([N+](=O)[O-])cc2C)cc1 [Example 50]
- pIC50 (Table 21): 7.85

SMILES: COc1ccc(S(=O)(=O)N(CC(C)C)C[C@@H](O)[C@H](Cc2ccccc2)NC(=O)c2cc([N+](=O)[O-])ccc2C)cc1 [Example 53]
- pIC50 (Table 21): 7.68

SMILES: COc1ccc(S(=O)(=O)N(CC(C)C)C[C@@H](O)[C@H](Cc2ccccc2)NC(=O)c2cc(N(C)C)ccc2C)cc1 [Example 55]
- pIC50 (Table 21): 7.43

SMILES: COc1ccc(S(=O)(=O)N(CC(C)C)C[C@@H](O)[C@H](Cc2ccccc2)NC(=O)OCc2cncs2)cc1 [Example 56]
- pIC50 (Table 21): 8.40

SMILES: CC(C)CN(C[C@@H](O)[C@H](Cc1ccccc1)NC(=O)OCc1cncs1)S(=O)(=O)c1ccc(O)cc1 [Example 57]
- pIC50 (Table 21): 8.40

SMILES: COc1ccc(S(=O)(=O)N(CC(C)C)C[C@@H](O)[C@H](Cc2ccccc2)NC(=O)OCc2ccoc2)cc1 [Example 58]
- pIC50 (Table 21): 8.70

SMILES: CC(C)CN(C[C@@H](O)[C@H](Cc1ccccc1)NC(=O)OCc1ccoc1)S(=O)(=O)c1ccc(N)cc1 [Example 60]
- pIC50 (Table 21): 8.30

SMILES: CC(C)CN(C[C@@H](O)[C@H](Cc1ccccc1)NC(=O)OCc1cncs1)S(=O)(=O)c1ccc(N)cc1 [Example 61]
- pIC50 (Table 21): 7.80

SMILES: Cc1ccccc1C(=O)N[C@@H](Cc1ccccc1)[C@H](O)CN(CC(C)C)S(=O)(=O)c1ccc(N)cc1 [Example 62]
- pIC50 (Table 21): 7.55

SMILES: Cc1c(O)cccc1C(=O)N[C@@H](Cc1ccccc1)[C@H](O)CN(CC(C)C)S(=O)(=O)c1ccc(N)cc1 [Example 63]
- pIC50 (Table 21): 8.15
